The test system of series [1] is CXCL8 induced chemotaxis of PMNs. The experiment in a line: CXCL8 induced chemotaxis of human PMNs. The class given is cell-based. The note with it: CXCL8 10^−9 M; for inhibition at 0.01 µM / inhibition at 0.001 µM: Homo sapiens; for inhibition at 0.01 µM: read-out: CXCL8 (% inhibition), tested at 10^−8 M; for inhibition at 0.001 µM / CXCL8 (% inhibition at 10^−9 M): compound at 10^−9 M. The protocol: (§1) The compounds of the invention of formula (I) were evaluated in vitro for their ability to inhibit chemotaxis of polymorphonucleate leukocytes (hereinafter referred to as PMNs) and monocytes induced by the fractions of CXCL8 and GRO-α. For this purpose, in order to isolate the PMNs from heparinized human blood, taken from healthy adult volunteers, mononucleates were removed by means of sedimentation on dextran (W. J. Ming et al., J. Immunol., 138, 1469, 1987). The cell vitality was calculated by exclusion with Trypan blue, whilst the ratio of the circulating polymorphonucleates was estimated on the cytocentrifugate after staining with Diff Quick.
In the CXCL8 induced chemotaxis assay human recombinant CXCL8 (Pepro Tech) was used as stimulating agent in the chemotaxis experiments: the lyophilized protein was dissolved in a volume of HBSS containing 0.2% bovin serum albumin (BSA) in order to obtain a stock solution having a concentration of 10^−5 M to be diluted in HBSS to a concentration of 10^−9 M, for the chemotaxis assays.
(§2) In the chemotaxis experiments, the PMNs were incubated with the compounds of the invention of formula (I) for 15′ at 37° C. in an atmosphere containing 5% CO2. During the chemotaxis assay (W. Falket et al., J. Immunol. Methods, 33, 239, 1980) PVP-free filters with a porosity of 5 μm and microchambers suitable for replication were used.
(§3) The compounds of the invention in formula (I) were evaluated at a concentration ranging between 10^−6 and 10^−10 M; for this purpose they were added, at the same concentration, both to the lower pores and the upper pores of the microchamber. Evaluation of the ability of the compounds of the invention of formula (I) to inhibit the chemotaxis of human monocytes was carried out according to a disclosed method (J. Van Damme et al., Eur. J. Immunol., 19, 2367, 1989).

Series [2] concerns GRO-α induced chemotaxis of PMNs. The experiment in a line: GRO-α (CXCL1) induced chemotaxis of human PMNs. The class given is cell-based. Particulars: compound at 10^−8 M; for inhibition at 0.01 µM: Homo sapiens. The method, then: as §1
GRO-α induced chemotaxis inhibition was evaluated in an analogous assay.
as §2, §3

Series [3] has as its system transient cerebral ischemia induced by occlusion of the middle cerebral artery. The series is described as follows: Transient cerebral ischemia by middle cerebral artery (MCA) occlusion in rats. The note with it: short-term effect (24 hours). It is filed as in vivo. The protocol:
The compounds of the present invention are particularly useful in the prevention and treatment of damages caused by ischemia/reperfusion, specifically in the protection from the functional injury induced by temporary cerebral middle cerebral artery (MCA) occlusion. Specifically, compound 3a was evaluated in terms of efficacy in a model of transient cerebral ischemia induced in rats by occlusion of the middle cerebral artery (MCA). The short-term effect (24 hours) of 3a on cerebral myeloperoxidase (MPO) activity, a marker of PMN infiltration, brain damage and neurological deficits, was investigated.

Setting [4] is: compound at 10^−8 M (footnote *).

Marks after values point to notes of the source that are not given here.

For `CC(C(=O)O)c1ccc(Nc2nc(C(F)(F)F)cs2)cc1` (stereo not drawn) [Compound 1, 2-(4-{[4-(Trifluoromethyl)-1,3-thiazol-2-yl]amino}phenyl)propanoic acid], the values for the inhibition at 0.01 µM in series [1] (setting [4]) and in series [2] were 43 ± 7% and 40 ± 6%, respectively.

In turn, `CC(C)(C(=O)O)c1ccc(Nc2nc(C(F)(F)F)cs2)cc1` [Compound 2, 2-Methyl-2-(4-{[4-(trifluoromethyl)-1,3-thiazol-2-yl]amino}phenyl)propanoic acid] had an inhibition at 0.001 µM in series [1] of 56 ± 10%. The same molecule gave an inhibition at 0.01 µM in series [2] of 42 ± 9%.

The molecule `C[C@H](C(=O)O)c1ccc(Nc2nc(C(F)(F)F)cs2)cc1` [Compound 3, (2S)-2-(4-{[4-(Trifluoromethyl)-1,3-thiazol-2-yl]amino}phenyl)propanoic acid] registered an inhibition at 0.001 µM in series [1] of 66 ± 11%. In series [2], this molecule came in with an inhibition at 0.01 µM of 58 ± 6%.

As to `C[C@H](C(=O)[O-])c1ccc(Nc2nc(C(F)(F)F)cs2)cc1.[Na+]` [Compound 3a, Sodium (2S)-2-(4-{[4-(trifluoromethyl)-1,3-thiazol-2-yl]amino}phenyl)propanoate], in series [1], the “CXCL8 (% inhibition at 10^−9 M)” value was determined as 64 ± 9%. The “CXCL1 (% inhibition at 10^−8 M)” value in series [2] is 55 ± 8%. Moreover, in series [3], the “PMN infiltrate (cerebral myeloperoxidase (MPO) activity)” value is listed as “efficacious in reducing PMN infiltrate”, the “infarct size (brain damage)” value is reported as “efficacious in reducing” and the “neurological functions (neurological deficits)” value is on record as “improving significantly neurological functions”.

`Cc1csc(Nc2ccc(C(C)C(=O)O)cc2)n1` (stereo not drawn) [Compound 4, 2-{4-[(4-Methyl-1,3-thiazol-2-yl)amino]phenyl}propanoic acid]: the results for the inhibition at 0.01 µM in series [1] (setting [4]) and in series [2] were 46 ± 6% and 45 ± 10%, respectively.

`Cc1csc(Nc2ccc([C@H](C)C(=O)O)cc2)n1` [Compound 5, (2S)-2-{4-[(4-Methyl-1,3-thiazol-2-yl)amino]phenyl}propanoic acid] came in with an inhibition at 0.001 µM in series [1] of 40 ± 11%. The inhibition at 0.01 µM in series [2] was 38 ± 10%.

On to `CC(C(=O)O)c1ccc(Nc2nc(C(C)(C)C)cs2)cc1` (stereo not drawn) [Compound 6, 2-{4-[(4-tert-Butyl-1,3-thiazol-2-yl)amino]phenyl}propanoic acid], for which the inhibition at 0.01 µM in series [1] (setting [4]) came out at 55 ± 10%; in series [2], 36 ± 10%.

`C[C@H](C(=O)O)c1ccc(Nc2nc(C(C)(C)C)cs2)cc1` [Compound 7, (2S)-2-{4-[(4-tert-Butyl-1,3-thiazol-2-yl)amino]phenyl}propanoic acid] showed an inhibition at 0.001 µM in series [1] of 50 ± 8%. Besides, at 0.01 µM the inhibition in series [2] was 45 ± 10%.

With `CC(C(=O)O)c1ccc(N(C)c2nc(C(F)(F)F)cs2)cc1` (stereo not drawn) [Compound 8, 2-(4-{Methyl[4-(trifluoromethyl)-1,3-thiazol-2-yl]amino}phenyl)propanoic acid], the inhibition at 0.01 µM was found to be 45 ± 5% in series [1] (setting [4]) and 39 ± 10% in series [2].

`C[C@H](C(=O)O)c1ccc(N(C)c2nc(C(F)(F)F)cs2)cc1` [Compound 9, (2S)-2-(4-{methyl[4-(trifluoromethyl)-1,3-thiazol-2-yl]amino}phenyl)propanoic acid]: the inhibition at 0.001 µM in series [1] stood at 41 ± 7%. This molecule also displayed an inhibition at 0.01 µM in series [2] of 40 ± 12%.

Regarding `C[C@H](C(=O)NO)c1ccc(Nc2nc(C(F)(F)F)cs2)cc1` [Compound 10, (2S)—N-Hydroxy-2-(4-{[4-(trifluoromethyl)-1,3-thiazol-2-yl]amino}phenyl) propanamide], in series [1], 0.001 µM produced 51 ± 10% inhibition. Further, in series [2], the inhibition at 0.01 µM turned out to be 47 ± 12%.

`C[C@H](C(=O)NS(C)(=O)=O)c1ccc(Nc2nc(C(F)(F)F)cs2)cc1` [Compound 11, (2S)—N-(Methylsulfonyl)-2-(4-{[4-(trifluoromethyl)-1,3-thiazol-2yl]amino}phenyl) propanamide] came in with an inhibition at 0.001 µM in series [1] of 54 ± 16%. Besides, in series [2], testing at 0.01 µM gave an inhibition of 39 ± 7%.

For `C[C@H](C(=O)NS(=O)(=O)C(F)(F)F)c1ccc(Nc2nc(C(F)(F)F)cs2)cc1` [Compound 12], the “CXCL8 (% inhibition), tested at 10^−8 M” value in series [1] (setting [4]) is 48 ± 13* %. In addition, the “CXCL1 (% inhibition at 10^−8 M)” value in series [2] came to 30 ± 7%.

Take `C[C@H](C(N)=O)c1ccc(Nc2nc(C(F)(F)F)cs2)cc1` [Compound 13]: the melting point fell in the range of 204 to 205 °C. The same molecule gave an inhibition at 0.001 µM in series [1] of 47 ± 3%. The molecule further gave an inhibition at 0.01 µM in series [2] of 44 ± 9%.

Regarding `C[C@H](C(N)=O)c1ccc(N(C)c2nc(C(F)(F)F)cs2)cc1` [Compound 14, (2S)-2-(4-{Methyl[4-(trifluoromethyl)-1,3-thiazol-2-yl]amino}phenyl)propanamide], the inhibition at 0.001 µM in series [1] amounted to 45 ± 14%. In series [2], this molecule came in with an inhibition at 0.01 µM of 34 ± 13%.

In turn, `C[C@H](C(N)=O)c1ccc(Nc2nc(C(C)(C)C)cs2)cc1` [Compound 15, (2S)-2-{4-[(4-tert-Butyl-1,3-thiazol-2-yl)amino]phenyl}propanamide] gave an inhibition at 0.001 µM in series [1] of 48 ± 8%. In addition, 0.01 µM produced 45 ± 10% inhibition in series [2].

In series [1], `C[C@H](C(=O)N[C@H](C)C(=O)O)c1ccc(Nc2nc(C(F)(F)F)cs2)cc1` [Compound 16, (2R)-2-{[(2S)-2-(4-{[4-(Trifluoromethyl)-1,3-thiazol-2-yl]amino}phenyl)propanoyl]amino}propanoic acid] came in with an inhibition at 0.001 µM of 42 ± 7%. The molecule further displayed an inhibition at 0.01 µM in series [2] of 30 ± 15%.

`CC(C)[C@H](NC(=O)[C@@H](C)c1ccc(Nc2nc(C(F)(F)F)cs2)cc1)C(=O)O` [Compound 17, (2S)-3-Methyl-2-{[(2S)-2-(4-{[4-(trifluoromethyl)-1,3-thiazol-2-yl]amino}phenyl)propanoyl]amino}butanoic acid] displayed a melting point of 99 to 101 °C. Besides, 0.001 µM produced 39 ± 2% inhibition in series [1]. The inhibition at 0.01 µM in series [2] was 40 ± 12%.

For `CC(C(=O)O)c1ccc(Nc2nc(C(F)(F)F)co2)cc1` (stereo not drawn) [Compound 18, 2-{4-[(4-Trifluoromethyl)-oxazol-2-yl]amino}phenyl propionic], the inhibition at 0.01 µM in series [1] (setting [4]) was 47 ± 12%; in series [2] it was 60 ± 9%.

`C[C@H](C(=O)O)c1ccc(Nc2nc(C(F)(F)F)co2)cc1` [Compound 19, (2S)-2-(4-{[4-(Trifluoromethyl)-1,3-oxazol-2-yl]amino}phenyl)propanoic acid] showed an inhibition at 0.001 µM in series [1] of 44 ± 10%. Further, in series [2], at 0.01 µM the inhibition was 36 ± 11%.

Take `C[C@H](C(=O)O)c1ccc(N(C)c2nc(C(F)(F)F)co2)cc1` [Compound 20, (2S)-2-(4-{Methyl[4-(trifluoromethyl)-1,3-oxazol-2-yl]amino}phenyl)propanoic acid]: 0.001 µM produced 47 ± 8% inhibition in series [1]. In addition, testing at 0.01 µM in series [2] gave an inhibition of 44 ± 7%.

For `C[C@H](C(=O)NS(C)(=O)=O)c1ccc(Nc2nc(C(F)(F)F)co2)cc1` [Compound 21, (2S)—N-(Methylsulfonyl)-2-(4-{[4-(trifluoromethyl)-1,3-oxazol-2-yl]amino}phenyl) propanamide], the “CXCL8 (% inhibition at 10^−9 M)” value in series [1] is 43 ± 6%. Further, in series [2], the “CXCL1 (% inhibition at 10^−8 M)” value came to 37 ± 2%.

Turning to `C[C@H](C(N)=O)c1ccc(Nc2nc(C(F)(F)F)co2)cc1` [Compound 22, (2S)-2-(4-{[4-(Trifluoromethyl)-1,3-oxazol-2-yl]amino}phenyl) propanamide], the inhibition at 0.001 µM in series [1] stood at 58 ± 5%. Besides, at 0.01 µM the inhibition in series [2] was 49 ± 6%.

Turning to `C[C@H](C(N)=O)c1ccc(N(C)c2nc(C(F)(F)F)co2)cc1` [Compound 23, (2S)-2-(4-{Methyl-[4-(trifluoromethyl)-1,3-oxazol-2-yl]amino}phenyl)propanamide], the inhibition at 0.001 µM in series [1] was determined as 45 ± 13%. Also, in series [2], the inhibition at 0.01 µM stood at 39 ± 2%.

Turning to `C[C@H](NC(=O)[C@@H](C)c1ccc(Nc2nc(C(F)(F)F)co2)cc1)C(=O)O` [Compound 24, (2S)-2-{[(2S)-2-(4-{[4-(Trifluoromethyl)-1,3-oxazol-2-yl]amino}phenyl)propanoyl]amino}propanoic acid], the inhibition at 0.01 µM was 54 ± 12% in series [1] (setting [4]) and 34 ± 8% in series [2].

Turning to `C[C@H](NC(=O)[C@@H](C)c1ccc(Nc2nc(C(F)(F)F)co2)cc1)C(N)=O` [Compound 25, (2S)—N-[(1S)-2-Amino-1-methyl-2-oxoethyl]-2-(4-{[4-(trifluoromethyl)-1,3-oxazol-2-yl]amino}phenyl) propanamide], 0.001 µM produced 46 ± 12% inhibition in series [1]. In series [2], this molecule returned an inhibition at 0.01 µM of 39 ± 14%.
